Experimental data as given in patent US7291627B2, “Dihydroimidazo[5.1-a]-beta-carboline derivatives, method for their preparation, and their application as a drug” (MACEF, priority 2001, dated 2007).

Test system: JA 657 chicks
Test: Chick sleep/sedation test (IM injection, 90 minute observation)
Assay type: in vivo
Settings: for Sed (sedation time as % of the period) / TA (time to torpor between injection and first stage of sleep) / TS (duration of the first sleep) / Tsed (total sedation time over the period): 90 min observation; for TS (mins) Placebo diff'ce: extension of first sleep compared with test controls
Experimental: The dihydroimidazo[5,1-a]-β-carboline derivatives of the invention, in particular those in the form of the methyl sulfonate, (soluble), were tested in chicks, and certain compounds that were active in the chick were administered in single doses to six Beagle dogs of both sexes for a polysomnographic study of at least 4 hours duration.
JA 657 chicks from Couvoir Gauguet, 44 Le Pin, were accustomed for at least 6 days to an alternating program of light and darkness with 12 hours of daylight and 12 hours of darkness at a regulated temperature of 25±2° C. They were fed ad libitum and were placed under test compounds in a vivarium in groups of 3 individuals with a mean weight of 100±10 g on the day of the test. At that age in this species, there is no effective meningeal (hemato-encephalic) barrier. The test products were injected in 3 doses (1, 3 and 10 mg/kg) intramuscularly (IM) in solution or in an aqueous suspension (1 drop of Tween 80 per ml), each to two batches of 3 chicks which were observed over 90 minutes. For each test series (18 vivaria), there was at least one batch of negative control chicks receiving the same volume (0.2 ml IM) of water for injectable preparations.
During the 90 minute observation period, the chicks were strongly stimulated every 15 minutes by presenting a full feeding trough, and each 5 minute period was given a grade from among the following 5 states, corresponding to the state of alertness over that period:
Mobile, sitting alert, drowsy, asleep, sleep-like state. The parameters studied were the time to torpor (TA) passed between injection and the first stage of sleep, the duration of the first sleep (TS) and the total sedation time over the period (Tsed), expressed in minutes and as a % of the period (Sed).
To compare the results of tests carried out at different dates, the extension of the duration of the first sleep TS compared with the test controls was recorded.

| Structure (SMILES) | Sed (sedation time as % of the period) (Dose: 1 mg/kg) | TA (time to torpor between injection and first stage of sleep) (Dose: 1 mg/kg) | TS (duration of the first sleep) (Dose: 1 mg/kg) | Tsed (total sedation time over the period) (Dose: 1 mg/kg) | TS (mins) Placebo diff'ce (Dose: 1 mg/kg) | Sed (sedation time as % of the period) (Dose: 3 mg/kg) | TA (time to torpor between injection and first stage of sleep) (Dose: 3 mg/kg) | TS (duration of the first sleep) (Dose: 3 mg/kg) | Tsed (total sedation time over the period) (Dose: 3 mg/kg) | TS (mins) Placebo diff'ce (Dose: 3 mg/kg) | Sed (sedation time as % of the period) (Dose: 10 mg/kg) | TA (time to torpor between injection and first stage of sleep) (Dose: 10 mg/kg) | TS (duration of the first sleep) (Dose: 10 mg/kg) | Tsed (total sedation time over the period) (Dose: 10 mg/kg) | TS (mins) Placebo diff'ce (Dose: 10 mg/kg) |
| --- | --- | --- | --- | --- | --- | --- | --- | --- | --- | --- | --- | --- | --- | --- | --- |
| COc1ccc2[nH]c3c(c2c1)CCn1cncc1-3 [Example 3, 8-methoxy-5,6-dihydroimidazo[5,1-a]-β-carboline] | 73.9% | 10 min | 40 min | 66.51 min | 36 min | 78.9% | 7 min | 66.5 min | 71.0 min | 62.5 min | 86.7% | 6.5 min | 77.5 min | 78.0 min | 73.5 min |
| COc1ccc2[nH]c3c(c2c1)CCn1c(C)nc(-c2ccccc2)c1-3 [Example 4, 8-methoxy-3-methyl-1-phenyl-5,6-dihydro-imidazo[5,1-a]-β-carboline] | 58.9% | 16.5 min | 38 min | 53.01 min | 34 min | 72.8% | 14 min | 22.5 min | 65.5 min | 18.5 min | 90.6% | 8.5 min | 81.5 min | 81.5 min | 76.5 min |
| CCc1nc(C)n2c1-c1[nH]c3ccc(OC)cc3c1CC2 [Example 5, 1-ethyl-8-methoxy-3-methyl-5,6-dihydro-imidazo[5,1-a]-β-carboline] | 58.3% | 20.5 min | 33 min | 52.47 min | 29 min | 76.7% | 14.5 min | 53 min | 69.0 min | 49 min | 62.8% | 13.5 min | 40.5 min | 56.5 min | 36.5 min |
| COc1ccc2[nH]c3c(c2c1)CCn1c-3cnc1C(C)C [Example 6, 8-methoxy-3-isopropyl-5,6-dihydroimidazo-[5,1-a]-β-carboline] | 73.3% | 11 min | 56.5 min | 65.97 min | 52.5 min | 80.6% | 12.5 min | 72.5 min | 72.5 min | 68.5 min | 82.2% | 12.5 min | 72.5 min | 74.0 min | 68.5 min |
